Test results taken from PMC11811207, “Macrocycle-based PROTACs selectively degrade cyclophilin A and inhibit HIV-1 and HCV” (Nature Communications, 2025).

What was measured:
CypA and CypB = CypA and CypB immunoblot in Jurkat cells treated with CsA-based PROTAC JW4-10; type: cell-based, human
Experimental: (§1) U87 cells (5 × 10^4 cells/well, 12 well plate), Huh7 cells (1 × 10^5 cells/well, 12 well plate), Calu-3 cells (1 × 10^5 cells/well, 12 well plate), Jurkat cells (5 × 10^5 cells/mL, 24 well plate, 1 mL/well), THP-1 Dual cells (4 × 10^5 cells/mL, 24 well plate, 1 mL/well), primary MDMs (confluent well), or primary resting/activated T cells (1-2 × 10^6 cells/well, 96 well plate) were treated with 5 μM Cyp-PROTAC or DMSO for 48 h. […] MLN4924 was washed out before the addition of Cyp-PROTAC, but VHLi was kept in for the duration of the experiment. In competitor experiments, Jurkat cells were treated with 10 μM TWH106 and 1 μM Cyp-PROTAC simultaneously for 48 h. For the time course experiments, Jurkat cells were treated with 5 μM Cyp inhibitor or DMSO and cells were harvested at indicated time points. For the titration experiments, Jurkat cells were treated with 0.01 – 10 μM Cyp inhibitor or DMSO for 24 h or 48 h. Before harvesting for immunoblot, cells were washed twice in PBS.
(§2) Cells were lysed in RIPA buffer (50 mM Tris pH 8.0, 150 mM sodium chloride, 1.0% Triton X-100, 0.5% sodium deoxycholate, 0.1% sodium dodecyl sulphate (SDS)) supplemented with protease inhibitors (cOmplete mini, EDTA-free, Roche) and phosphatase inhibitors (PhosSTOP, Roche). After 10 min incubation on ice, samples were centrifuged (16000 × g, 10 min, 4 °C), and the supernatant protein content was determined using Pierce^TM BCA Protein Assay Kit (Thermo Fisher Scientific). Samples were combined with 4x Laemmli sample buffer (200 mM Tris pH 6.8, 40% glycerol, 8% SDS, 0.4% Bromophenol Blue) and the appropriate amount of RIPA buffer to normalise protein concentrations of samples and boiled for 5 min. Proteins were separated by SDS-PAGE on 15% polyacrylamide gels and transferred onto nitrocellulose membrane using the Trans-Blot Turbo Transfer System (Bio-Rad). […] Densitometry analysis was performed using ImageJ (v2.14.0), and normalised protein densities were calculated by normalisation to β-actin loading control and untreated control as stated. […]

CypA = biological target: T1, CypA (Homo sapiens, UniProt P62937); assay: CypA degradation in Jurkat cells by immunoblot; type: cell-based; details: for effect on CypA levels in the absence of PROTAC: Jurkat, MLN4924 1 μM 6 h or VHLi 50 μM
T1 construct: endogenous in cells; host or cells: Jurkat; also Calu-3, THP-1, MDMs, U87, Huh7, primary human CD4+ T cells
T1 sequence (P62937 whole entry): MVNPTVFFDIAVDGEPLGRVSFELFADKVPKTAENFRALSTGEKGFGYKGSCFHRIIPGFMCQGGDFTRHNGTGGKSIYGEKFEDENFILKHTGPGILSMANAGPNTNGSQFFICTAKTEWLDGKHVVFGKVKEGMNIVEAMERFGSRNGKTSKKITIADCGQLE
Experimental: as §1
as §2, with “(Bio-Rad). Blots were blocked in 5% milk in PBS-Tween for 1 h and incubated with primary antibodies in 5% milk in PBS-Tween overnight. After washing in PBS-Tween, blots were incubated with IRDye® fluorescent secondary antibodies (LI-COR) for 1 h, washed in PBS-Tween, then PBS, and visualised on an LI-COR Odyssey imaging system. Uncropped and unprocessed scans are provided in the Source Data file (main figures) and in the Figshare research data repository 10.6084/m9.figshare.c.7387381 (supplementary figures).” for “(Bio-Rad).”
DC50s and Dmaxs were calculated from sigmoidal (4-parameter logistic) fits, mean (n = 2 independent experiments).

THP-1 cell proteome = assay: Mass spectrometry-based proteomics in THP-1 cells; type: cell-based, human; details: THP-1, 5 μM, 72 h
Experimental: THP-1 Dual cells were treated with 5 μM Cyp inhibitor or DMSO for 72 h. After washing with PBS, cells were lysed (5% SDS, 5 mM tris(2-carboxyethyl)phosphine (TCEP), 10 mM chloroacetamide (CAA), 100 mM Tris, 1% Triton X-100, pH 8.5) and boiled for 10 min followed by sonication in a water bath for 10 min. Protein concentration was estimated by BCA assay (Thermo Fisher Scientific). Protein digestion was automated on a KingFisher APEX robot (Thermo Fisher Scientific) in a 96-well format using a protocol from Koenig et al.[83] with minor modifications. […]
Peptides were then dissolved in 0.5% TFA before liquid chromatography–tandem mass spectrometry (MS/MS) analysis. The mixture of tryptic peptides was analysed using an Ultimate3000 high-performance liquid chromatography system coupled online to an Eclipse mass spectrometer (Thermo Fisher Scientific). […]
All raw files were analysed by DIA-NN v1.8.1[84], searching against library generated automatically using Human reference proteome (UniProt) and standard settings: peptides from 7 to 30 amino acids, max number of missed cleavages of 1, oxidation (M) and protein-acetylation as only variable modifications. The data files generated by DIA-NN were analysed using Perseus version 2.0.10.0[85]. […]

CypB = biological target: T2, CypB (Homo sapiens, UniProt P23284); assay: CypB levels in Jurkat cells by immunoblot; type: cell-based
T2 construct: endogenous in cells; host or cells: Jurkat
T2 sequence (P23284 34-216): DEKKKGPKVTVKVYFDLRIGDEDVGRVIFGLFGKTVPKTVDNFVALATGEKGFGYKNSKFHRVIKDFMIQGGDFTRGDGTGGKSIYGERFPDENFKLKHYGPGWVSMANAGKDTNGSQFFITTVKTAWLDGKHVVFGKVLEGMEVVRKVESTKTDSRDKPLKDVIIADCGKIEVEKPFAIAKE
Experimental: as §1, with “For the time course experiments, Jurkat cells were treated with 5 μM Cyp inhibitor or DMSO and cells were harvested at indicated time points. For the titration experiments, Jurkat cells were treated with 0.01 – 10 μM Cyp inhibitor or DMSO for 24 h or 48 h. Before harvesting for immunoblot, cells were washed twice in PBS.” left out
Cells were lysed in RIPA buffer (50 mM Tris pH 8.0, 150 mM sodium chloride, 1.0% Triton X-100, 0.5% sodium deoxycholate, 0.1% sodium dodecyl sulphate (SDS)) supplemented with protease inhibitors (cOmplete mini, EDTA-free, Roche) and phosphatase inhibitors (PhosSTOP, Roche). After 10 min incubation on ice, samples were centrifuged (16000 × g, 10 min, 4 °C), and the supernatant protein content was determined using Pierce^TM BCA Protein Assay Kit (Thermo Fisher Scientific). […] Densitometry analysis was performed using ImageJ (v2.14.0), and normalised protein densities were calculated by normalisation to β-actin loading control and untreated control as stated. […]

U87 cells = assay: MTT viability assay, U87 cells; type: cell-based; details: U87, 10 μM
Experimental: (§3) U87 cells (1 × 10^4 cells/well, 48 well plate) or Jurkat cells (5 × 10^3 cells/well, 96 well U-bottom plate) were treated with serial dilutions of Cyp inhibitors as indicated. After 48 h, the media was aspirated and replaced with fresh Cyp inhibitor dilutions and the lentiviral vector (MOI: 0.25) for a further 48 h. Experiments were carried out in triplicate.
(§4) 3-(4,5-Dimethyl-2-thiazolyl)-2,5-diphenyl-2H-tetrazolium bromide (MTT) assay was performed on U87 cells, Jurkat cells or Huh7 cells treated with Cyp inhibitors as indicated. At the time point indicated, 10% v/v MTT (stock at 5 mg/mL in PBS) (475989, Sigma Aldrich) was added, and cells were incubated for 1 - 2 h at 37 °C. 100 μL solubilisation solution (10% SDS and 0.01 M HCl) was added, and after overnight incubation at 37 °C, absorbance was measured at 570 nm. Experiments were carried out in triplicate.

Jurkat cells = assay: MTT viability assay, Jurkat cells; type: cell-based, human; details: highest concentrations tested
Experimental: as §3, §4

HCV JFH-1 replicon = assay: HCV JFH-1 subgenomic replicon (luciferase) in Huh7 cells; type: cell-based; details: Huh7, 5 μM pretreatment, washed out, not readded
Experimental: HCV JFH-1 subgenomic replicon (SGR) (pFKI389Luc/NS3-3’_dg_JFH, previously described)[87] plasmid DNA (10 μg) was linearised by digestion with MluI, and purified linearised DNA (1 μg) was used as a template for in vitro transcription, according to the MEGAscript T7 Transcription Kit instructions (Invitrogen). RNA was resuspended in nuclease-free water at a concentration of 1 μg/μL, aliquoted, and stored at − 80 °C.
HCV SGR RNA (5 μg or 1 μg) was electroporated into 2 × 10^6 or 2 × 10^5 Huh7 cells, respectively, using a Neon transfection system (Thermo Scientific). Single-cell suspensions were washed with PBS and resuspended in 100 μL or 10 μL of Buffer R, respectively. Resuspended cells were mixed with RNA and loaded into a Neon Tip and electroporated using the Neon Transfection system (1400 V, 20 ms, 1 pulse) and resuspended in 12 mL or 1.2 mL of media, respectively, prior to seeding in 96 well plates at a density of ~2 × 10^4 cells/well. […] Experiments were carried out in triplicate. Firefly luciferase activity was measured on a Glomax (Promega) at 4 h post electroporation (hpe) and 48 hpe using the SteadyGlo reagent (Promega) according to the manufacturer’s instructions. Data at 48 hpe were normalised to the input luciferase signal at 4 hpe.

full-length human CypA = full-length human CypA (Homo sapiens, UniProt P62937); assay: SPR against CypA (immobilised on CM5 chip)
Sequence of full-length human CypA (P62937 whole entry, the tested form may be a part): as the sequence (P62937 whole entry) above

N-truncated CypB = N-truncated CypB (Homo sapiens, UniProt P23284); assay: SPR against N-truncated CypB (immobilised on CM5 chip)
Sequence of N-truncated CypB (P23284 34-212): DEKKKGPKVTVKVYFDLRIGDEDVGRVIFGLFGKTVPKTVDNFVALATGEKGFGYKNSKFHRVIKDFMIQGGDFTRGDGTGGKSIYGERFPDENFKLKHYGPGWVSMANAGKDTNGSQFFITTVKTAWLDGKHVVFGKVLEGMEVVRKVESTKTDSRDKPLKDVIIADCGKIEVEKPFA

HIV-1 NL4.3 = assay: Wild-type HIV-1 spreading infection in activated primary CD4+ T cells
Experimental: NL4.3 stocks were produced by transfection of HEK293T cells in 150 cm^2 flasks with 9 μg pNL4.3 using 60 μL Fugene 6 (E2692, Promega) according to the manufacturer’s instructions. Supernatants were harvested at 48 and 72 h, filtered, DNase treated, purified and concentrated by ultracentrifugation through a 20% sucrose cushion and resuspended in RPMI with 10% FBS. Viral titres were determined by measuring reverse transcriptase (RT) activity in mU by SG-PERT assay[86].
To infect activated primary CD4+ T cells with HIV-1, cells were mixed and incubated with HIV-1 NL4.3 virus (2000 mU RT/10^6 cells) for 4 h at 37 °C. […] After exposure to the virus, T cells were washed twice in PBS by centrifugation (400 × g, 5 min) and resuspended in fresh culture medium. […]
For primary T cell infection experiments, cells were washed in PBS and stained with fixable Zombie R685 Live/Dead dye (423119, BioLegend, 1:500) for 5 min at 37 °C. […] Intracellular CypA was detected by incubating permeabilised cells with CypA antibody (clone 1F4-1B5, ab58144, Abcam, 1:1000) for 30 min, followed by washing (PBS) and 15 min incubation with secondary anti-mouse AlexaFluor488- or AlexaFluor647-tagged antibody. After washing with PBS (700 × g, 5 min, 4 °C) to remove excess antibodies, data were acquired on a NovoSampler Pro (Agilent) and analysed using FlowJo v10.10 (Tree Star) or NovoExpress 1.5.0 (Agilent).

With `CC[C@@H]1NC(=O)[C@H]([C@H](O)[C@H](C)C/C=C/CCCCC(=O)N[C@H](C(=O)N2C[C@H](O)C[C@H]2C(=O)N[C@@H](C)c2ccc(-c3scnc3C)cc2)C(C)(C)C)N(C)C(=O)[C@H](C(C)C)N(C)C(=O)[C@H](CC(C)C)N(C)C(=O)[C@H](CC(C)C)N(C)C(=O)[C@@H](C)NC(=O)[C@H](C)NC(=O)[C@H](CC(C)C)N(C)C(=O)[C@H](C(C)C)NC(=O)[C@H](CC(C)C)N(C)C(=O)CN(C)C1=O` [JW4-10] the “degradation of CypA and CypB” value (CypA and CypB; 5 μM, 48 h) was “degraded both CypA and CypB”, the “rescue by excess VHL inhibitor VH298 pretreatment” value (CypA and CypB; 50 µM VHLi 2 h before 5 µM PROTAC) was “rescued CypA, but not CypB” and the “rescue by MLN4924 pretreatment” value (CypA and CypB; MLN4924 1 μM 6 h before 5 μM PROTAC) was “fully rescued CypA, but not CypB”.

`NS(=O)(=O)OC[C@@H]1C[C@@H](n2ccc3c(N[C@H]4CCc5ccccc54)ncnc32)C[C@@H]1O` [MLN4924, reference compound] was tested, and the “effect on CypA levels in the absence of PROTAC” value (CypA) was “no impact on CypA levels”.

For `C[C@@H]1NC(=O)[C@H](Cc2ccc([N+](=O)[O-])cc2)NC(=O)C/C=C/c2ccc3ccc(nc3c2)[C@@H](C)OC(=O)[C@@H]2CCCN(N2)C1=O` [TWH106], the “effect on CypA protein levels, time course” value (CypA; Jurkat cells, 5 μM, up to 6 days) was “did not reduce CypA levels except a small decrease after 6 days”, the “effect on CypA levels, dose response” value (CypA; Jurkat cells, 0.01 – 10 μM, 24 h and 48 h) was “mild CypA loss only at 10 µM and after 24 hours” and the “effect on CypA in proteomics” value (THP-1 cell proteome) was “did not affect CypA levels”. The “effect on CypB levels, time course” value (CypB; 5 μM, 6 days) was “most effectively reduced”, the “effect on CypB levels, dose response” value (CypB; 0.01–10 μM, 48 h) was “dose-dependent decrease in CypB” and the “cell viability (MTT)” value (U87 cells) was “slightly toxic”. For the same compound, the “cell viability (MTT)” value (Jurkat cells) was “toxic”, the “antiviral activity against HCV replicon, pretreatment only” value (HCV JFH-1 replicon) was “abrogated” and the Kd (full-length human CypA; CypA KD, SPR equilibrium analysis, full-length CypA, mean of two independent experiments ± SD) was 53 ± 5 nM. It also gave a Kd (full-length human CypA; CypA dissociation constant (KD) from sigmoid fit, representative experiment, one of two independent experiments, Supplementary Fig. 2) of 48 nM, a Kd (N-truncated CypB; CypB KD, SPR equilibrium analysis, N-truncated CypB, mean of two independent experiments ± SD) of 139 ± 24 nM and a Kd (N-truncated CypB; CypB dissociation constant (KD) from sigmoid fit, representative experiment, one of two independent experiments, Supplementary Fig. 3) of 163 nM. For the same compound, the “lower affinity for N-truncated CypB compared to CypA” value (N-truncated CypB; SPR KD CypB vs CypA) was 2-3 fold, the “antiviral activity, pretreatment only” value (HIV-1 NL4.3; 5 μM 48 h pretreatment, not readded after infection) was “abrogated” and the “antiviral activity (Gag+ cells, viral particles in supernatant)” value (HIV-1 NL4.3; continuous treatment 1 μM or 5 μM) was “antiviral”.

`Cc1ncsc1-c1ccc(CNC(=O)[C@@H]2C[C@@H](O)CN2C(=O)[C@@H](NC(=O)C2(C#N)CC2)C(C)(C)C)cc1` [VH298, reference compound] was tested, and the “effect on CypA levels in the absence of PROTAC” value (CypA) was “did not impact CypA levels”.
